Species on record: Rattus norvegicus
Experiment: DrugMatrix - Regimen: Daily Repeat
Format: toxicity, organism-based, Sprague-Dawley
Design: regimen Daily Repeat, gender Male, age 6-8 weeks
Settings: in vivo, po, route oral GAVAGE, […]; for ABSOLUTE BASOPHIL / BASOPHIL / NUCLEATED RED BLOOD CELLS / ABSOLUTE EOSINOPHIL / ABSOLUTE LYMPHOCYTE / ABSOLUTE MONOCYTE / ABSOLUTE SEGMENTED NEUTROPHIL / EOSINOPHIL / ERYTHROCYTE COUNT / HEMATOCRIT / LEUKOCYTE COUNT / MEAN CORPUSCULAR HEMOGLOBIN / MEAN CORPUSCULAR HEMOGLOBIN CONCENTRATION / MEAN CORPUSCULAR VOLUME / MONOCYTE / NEUTROPHIL / PLATELET COUNT: tissue Blood; for TOTAL BILIRUBIN / ALANINE AMINOTRANSFERASE / ALBUMIN / ALKALINE PHOSPHATASE / ASPARTATE AMINOTRANSFERASE / BLOOD UREA NITROGEN / CHLORIDE / CHOLESTEROL / CREATINE PHOSPHOKINASE / CREATININE / GLUCOSE / LACTATE DEHYDROGENASE / LIPASE / PHOSPHORUS / POTASSIUM / URIC ACID: tissue Plasma
[1] = 0 mg/kg, 72 h, dose level Control, time 3 day
[2] = 0 mg/kg, 120 h, dose level Control, time 5 day
[3] = 1 mg/kg, 72 h, dose level Low, time 3 day
[4] = 1 mg/kg, 120 h, dose level Low, time 5 day
[5] = 150 mg/kg, 72 h, dose level M1, time 3 day
[6] = 300 mg/kg, 72 h, dose level High, time 3 day
[7] = 300 mg/kg, 120 h, dose level High, time 5 day

C[C@@H]1C[C@H]2[C@@H]3CCC4=CC(=O)C=C[C@]4(C)[C@@]3(F)[C@@H](O)C[C@]2(C)[C@@]1(O)C(=O)CO [DEXAMETHASONE]
ABSOLUTE BASOPHIL [1]: 0 CELLS/uL
BASOPHIL [1]: 0%
NUCLEATED RED BLOOD CELLS [1]: 0 /100WBC
TOTAL BILIRUBIN [1]: 0.2 mg/dL
ABSOLUTE BASOPHIL [2]: 0 CELLS/uL
BASOPHIL [2]: 0%
ABSOLUTE BASOPHIL [3]: 0 CELLS/uL
ABSOLUTE EOSINOPHIL [3]: 0 CELLS/uL
ABSOLUTE LYMPHOCYTE [3]: 386.33 CELLS/uL
ABSOLUTE MONOCYTE [3]: 54.33 CELLS/uL
ABSOLUTE SEGMENTED NEUTROPHIL [3]: 12226 CELLS/uL
BASOPHIL [3]: 0%
EOSINOPHIL [3]: 0%
ERYTHROCYTE COUNT [3]: 4.89 x10E6/uL
HEMATOCRIT [3]: 30.93%
LEUKOCYTE COUNT [3]: 12.67 x10E3/uL
MEAN CORPUSCULAR HEMOGLOBIN [3]: 25.53 pg
MEAN CORPUSCULAR HEMOGLOBIN CONCENTRATION [3]: 40.3 G/DL
MEAN CORPUSCULAR VOLUME [3]: 63.33 fL
MONOCYTE [3]: 0.33%
NEUTROPHIL [3]: 96%
NUCLEATED RED BLOOD CELLS [3]: 1 /100WBC
PLATELET COUNT [3]: 1088 x10E3/uL
ALANINE AMINOTRANSFERASE [3]: 118.33 u/L
ALBUMIN [3]: 4.1 G/DL
ALKALINE PHOSPHATASE [3]: 632 u/L
ASPARTATE AMINOTRANSFERASE [3]: 203 u/L
BLOOD UREA NITROGEN [3]: 28.33 mg/dL
CHLORIDE [3]: 95 MEQ/L
CHOLESTEROL [3]: 76.33 mg/dL
CREATINE PHOSPHOKINASE [3]: 789 u/L
CREATININE [3]: 0.16 mg/dL
GLUCOSE [3]: 441 mg/dL
LACTATE DEHYDROGENASE [3]: 205.67 u/L
LIPASE [3]: 45.67 u/L
PHOSPHORUS [3]: 10.57 mg/dL
POTASSIUM [3]: 5.98 MEQ/L
TOTAL BILIRUBIN [3]: 0.33 mg/dL
URIC ACID [3]: 1.2 mg/dL
ABSOLUTE BASOPHIL [4]: 0 CELLS/uL
ABSOLUTE EOSINOPHIL [4]: 0 CELLS/uL
ABSOLUTE LYMPHOCYTE [4]: 716 CELLS/uL
ABSOLUTE MONOCYTE [4]: 233 CELLS/uL
ABSOLUTE SEGMENTED NEUTROPHIL [4]: 18184.33 CELLS/uL
BASOPHIL [4]: 0%
EOSINOPHIL [4]: 0%
ERYTHROCYTE COUNT [4]: 3.43 x10E6/uL
HEMATOCRIT [4]: 25.35%
LEUKOCYTE COUNT [4]: 19.13 x10E3/uL
MEAN CORPUSCULAR HEMOGLOBIN [4]: 24.9 pg
MEAN CORPUSCULAR HEMOGLOBIN CONCENTRATION [4]: 40.75 G/DL
MEAN CORPUSCULAR VOLUME [4]: 59.67 fL
MONOCYTE [4]: 1.33%
NEUTROPHIL [4]: 94%
NUCLEATED RED BLOOD CELLS [4]: 3.33 /100WBC
PLATELET COUNT [4]: 832.67 x10E3/uL
ALANINE AMINOTRANSFERASE [4]: 247 u/L
ALBUMIN [4]: 3.87 G/DL
ALKALINE PHOSPHATASE [4]: 684.67 u/L
ASPARTATE AMINOTRANSFERASE [4]: 267.67 u/L
BLOOD UREA NITROGEN [4]: 20 mg/dL
CHLORIDE [4]: 95 MEQ/L
CHOLESTEROL [4]: 149.67 mg/dL
CREATINE PHOSPHOKINASE [4]: 312.33 u/L
CREATININE [4]: 0.11 mg/dL
GLUCOSE [4]: 438.67 mg/dL
LACTATE DEHYDROGENASE [4]: 287.33 u/L
LIPASE [4]: 21.67 u/L
PHOSPHORUS [4]: 9.83 mg/dL
POTASSIUM [4]: 5.94 MEQ/L
TOTAL BILIRUBIN [4]: 0.25 mg/dL
URIC ACID [4]: 1.43 mg/dL
ABSOLUTE BASOPHIL [5]: 0 CELLS/uL
ABSOLUTE EOSINOPHIL [5]: 0 CELLS/uL
ABSOLUTE LYMPHOCYTE [5]: 851.67 CELLS/uL
ABSOLUTE MONOCYTE [5]: 0 CELLS/uL
ABSOLUTE SEGMENTED NEUTROPHIL [5]: 8381.67 CELLS/uL
BASOPHIL [5]: 0%
EOSINOPHIL [5]: 0%
ERYTHROCYTE COUNT [5]: 3.49 x10E6/uL
HEMATOCRIT [5]: 22.2%
LEUKOCYTE COUNT [5]: 9.23 x10E3/uL
MEAN CORPUSCULAR HEMOGLOBIN [5]: 24.87 pg
MEAN CORPUSCULAR HEMOGLOBIN CONCENTRATION [5]: 39.17 G/DL
MEAN CORPUSCULAR VOLUME [5]: 63.47 fL
MONOCYTE [5]: 0%
NEUTROPHIL [5]: 90.33%
NUCLEATED RED BLOOD CELLS [5]: 0 /100WBC
PLATELET COUNT [5]: 661.67 x10E3/uL
ALANINE AMINOTRANSFERASE [5]: 222.67 u/L
ALBUMIN [5]: 4.03 G/DL
ALKALINE PHOSPHATASE [5]: 224 u/L
ASPARTATE AMINOTRANSFERASE [5]: 153.67 u/L
BLOOD UREA NITROGEN [5]: 40.67 mg/dL
CHLORIDE [5]: 88.33 MEQ/L
CREATINE PHOSPHOKINASE [5]: 139 u/L
CREATININE [5]: 0.28 mg/dL
GLUCOSE [5]: 361.33 mg/dL
LACTATE DEHYDROGENASE [5]: 175.33 u/L
LIPASE [5]: 12 u/L
PHOSPHORUS [5]: 7.7 mg/dL
POTASSIUM [5]: 3.29 MEQ/L
TOTAL BILIRUBIN [5]: 0.27 mg/dL
URIC ACID [5]: 0.6 mg/dL
ABSOLUTE BASOPHIL [6]: 0 CELLS/uL
ABSOLUTE EOSINOPHIL [6]: 101.33 CELLS/uL
ABSOLUTE LYMPHOCYTE [6]: 370.67 CELLS/uL
ABSOLUTE MONOCYTE [6]: 0 CELLS/uL
ABSOLUTE SEGMENTED NEUTROPHIL [6]: 13461.33 CELLS/uL
BASOPHIL [6]: 0%
EOSINOPHIL [6]: 0.67%
ERYTHROCYTE COUNT [6]: 4.56 x10E6/uL
HEMATOCRIT [6]: 29.6%
LEUKOCYTE COUNT [6]: 13.93 x10E3/uL
MEAN CORPUSCULAR HEMOGLOBIN [6]: 26.77 pg
MEAN CORPUSCULAR HEMOGLOBIN CONCENTRATION [6]: 41.3 G/DL
MEAN CORPUSCULAR VOLUME [6]: 64.73 fL
MONOCYTE [6]: 0%
NEUTROPHIL [6]: 96.67%
NUCLEATED RED BLOOD CELLS [6]: 3 /100WBC
PLATELET COUNT [6]: 922.33 x10E3/uL
ALANINE AMINOTRANSFERASE [6]: 191 u/L
ALBUMIN [6]: 3.07 G/DL
ALKALINE PHOSPHATASE [6]: 263 u/L
ASPARTATE AMINOTRANSFERASE [6]: 136.33 u/L
BLOOD UREA NITROGEN [6]: 17 mg/dL
CHLORIDE [6]: 90.33 MEQ/L
CHOLESTEROL [6]: 231 mg/dL
CREATINE PHOSPHOKINASE [6]: 714.67 u/L
CREATININE [6]: 0.13 mg/dL
GLUCOSE [6]: 404.67 mg/dL
LACTATE DEHYDROGENASE [6]: 193.33 u/L
LIPASE [6]: 55 u/L
PHOSPHORUS [6]: 10.2 mg/dL
POTASSIUM [6]: 3.86 MEQ/L
TOTAL BILIRUBIN [6]: 1.1 mg/dL
URIC ACID [6]: 1.1 mg/dL
ABSOLUTE BASOPHIL [7]: 0 CELLS/uL
ABSOLUTE EOSINOPHIL [7]: 0 CELLS/uL
ABSOLUTE LYMPHOCYTE [7]: 332 CELLS/uL
ABSOLUTE MONOCYTE [7]: 0 CELLS/uL
ABSOLUTE SEGMENTED NEUTROPHIL [7]: 16268 CELLS/uL
BASOPHIL [7]: 0%
EOSINOPHIL [7]: 0%
ERYTHROCYTE COUNT [7]: 2.89 x10E6/uL
HEMATOCRIT [7]: 17%
LEUKOCYTE COUNT [7]: 16.6 x10E3/uL
MEAN CORPUSCULAR HEMOGLOBIN [7]: 25.3 pg
MEAN CORPUSCULAR HEMOGLOBIN CONCENTRATION [7]: 42.9 G/DL
MEAN CORPUSCULAR VOLUME [7]: 58.9 fL
MONOCYTE [7]: 0%
NEUTROPHIL [7]: 98%
NUCLEATED RED BLOOD CELLS [7]: 0 /100WBC
PLATELET COUNT [7]: 777 x10E3/uL
ALANINE AMINOTRANSFERASE [7]: 1291 u/L
ALBUMIN [7]: 3.2 G/DL
ALKALINE PHOSPHATASE [7]: 579 u/L
ASPARTATE AMINOTRANSFERASE [7]: 470 u/L
BLOOD UREA NITROGEN [7]: 26 mg/dL
CHLORIDE [7]: 87 MEQ/L
CHOLESTEROL [7]: 201 mg/dL
CREATINE PHOSPHOKINASE [7]: 1188 u/L
CREATININE [7]: 0.1 mg/dL
GLUCOSE [7]: 443 mg/dL
LACTATE DEHYDROGENASE [7]: 750 u/L
LIPASE [7]: 9 u/L
PHOSPHORUS [7]: 10.7 mg/dL
POTASSIUM [7]: 2.68 MEQ/L
TOTAL BILIRUBIN [7]: 0.8 mg/dL
URIC ACID [7]: 0.7 mg/dL
